Laboratory results as given in the supplement of paper PMC12137928.
Counter-ions that a name gives are not always drawn.

How the values were obtained:
HCT116 [1] = details: 72 h
How it was run: (§1)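 In 1536-well plates, 250 HCT116 cells per well were seeded and left for 5 h to attach. Luminescence from CellTiter-Glo was set against vehicle (0%) and positive control (-100%), and pattern correction was applied. IC50 and maximal efficacy come from four-parameter Hill fitting.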

HCT116 [2] = assay: efficacy (maximum % inhibition of viability vs DMSO); higher = more cytotoxic; details: 72 h
How it was run: as §1

| IC50 cell viability (HCT116 [1]; ICRF193 0 nM) [µM] | IC50 cell viability (HCT116 [1]; ICRF193 200 nM) [µM] | SMILES | efficacy (HCT116 [2]; ICRF193 0 nM) [%] | efficacy (HCT116 [2]; ICRF193 200 nM) [%] |
| --- | --- | --- | --- | --- |
| 2.31 | 1.83 | COc1cc([C@@H]2c3cc4c(cc3[C@@H](O[C@@H]3O[C@@H]5CO[C@@H](c6cccs6)O[C@H]5[C@H](O)[C@H]3O)[C@H]3COC(=O)[C@H]23)OCO4)cc(OC)c1O [Teniposide] | 92 | 103 |
| 29.1 | 18.3 | Clc1ccc(CSC(Cn2ccnc2)c2ccc(Cl)cc2Cl)cc1 (stereo not drawn) [Sulconazole nitrate] | 89.6 | 76.4 |
| 29.1 | 18.3 | CCCC(=O)OC[C@@H](OC(=O)CCC)[C@@H](OC(=O)CCC)[C@H](Cn1c2nc(=O)[nH]c(=O)c-2nc2cc(C)c(C)cc21)OC(=O)CCC [Riboflavin tetrabutyrate] | 64.5 | 82.1 |
| > 45.8 | 23.1 | CCC(=O)c1ccc2c(c1)N(CCCN(C)C)c1ccccc1S2 [Propionylpromazine hydrochloride] | – | 60.1 |
| > 45.8 | 16.4 | CCCOC(C(=O)OC1CCN(C)CC1)(c1ccccc1)c1ccccc1 [Propiverine hydrochloride] | – | 45 |
| 29.1 | 18.3 | CCCSc1nc(N[C@@H]2C[C@H]2c2ccc(F)c(F)c2)c2nnn([C@@H]3C[C@H](OCCO)[C@@H](O)[C@H]3O)c2n1 [Ticagrelor] | 77.1 | 92.6 |
| 20.6 | > 45.8 | CC1(C)CCC(C)(C)c2cc(NC(=O)c3ccc(C(=O)O)cc3)ccc21 [Tamibarotene] | 52.7 | – |

Continued, compound first:

| SMILES | IC50 cell viability (HCT116 [1]; ICRF193 0 nM) [µM] | IC50 cell viability (HCT116 [1]; ICRF193 200 nM) [µM] | efficacy (HCT116 [2]; ICRF193 0 nM) [%] | efficacy (HCT116 [2]; ICRF193 200 nM) [%] |
| --- | --- | --- | --- | --- |
| CCCCCCCCCCCC[N+](C)(C)CCOc1ccccc1 [Domiphen bromide] | 10.3 | 8.2 | 101 | 90.4 |
| C[C@]12CCC(=O)C=C1[C@@H]1C[C@@H]1[C@H]1[C@@H]3[C@@H]4C[C@@H]4[C@@]4(CCC(=O)O4)[C@@]3(C)CC[C@@H]12 [Drospirenone] | 18.3 | 23.1 | 51.3 | 49.1 |
| CC(=O)Oc1ccc(C2(c3ccc(OC(C)=O)cc3)Oc3ccccc3NC2=O)cc1 [Bisoxatin acetate] | 14.6 | 20.6 | 66.7 | 89 |
| Nc1nc(=S)c2[nH]cnc2[nH]1 [6-Thioguanine] | 3.66 | 2.06 | 97.5 | 91.8 |
| COc1cc(C(=O)OCCCN2CCCN(CCCOC(=O)c3cc(OC)c(OC)c(OC)c3)CC2)cc(OC)c1OC [Dilazep] | > 45.8 | 29.1 | – | 51.1 |
| O=C(N[C@H]1CCS[C@H]2CCC[C@@H](C(=O)O)N2C1=O)[C@@H](S)Cc1ccccc1 [Omapatrilat] | > 45.8 | 6.51 | – | 86.5 |
| CC(=O)N1CCN(c2ccc(OCC3COC(Cn4ccnc4)(c4ccc(Cl)cc4Cl)O3)cc2)CC1 (stereo not drawn) [Ketoconazole] | > 45.8 | 13 | – | 55.8 |
| NS(=O)(=O)c1cc2c(cc1Cl)N=C(CSCc1ccccc1)NS2(=O)=O [Benzthiazide] | > 45.8 | 29.1 | – | 77 |
| O=c1[nH]cc(F)c(=O)[nH]1 [Fluorouracil] | 10.3 | 20.6 | 59.5 | 55.4 |
| C#C[C@]1(O)CC[C@H]2[C@@H]3CCc4cc(O)ccc4[C@H]3CC[C@@]21C [Ethinylestradiol] | > 45.8 | 20.6 | – | 41.1 |
| CCCCc1oc2ccccc2c1C(=O)c1cc(I)c(OCCN(CC)CC)c(I)c1 [Amiodarone hydrochloride] | 20.6 | 16.4 | 92.6 | 93 |
| COc1cc(NC(C)CCCN)c2ncccc2c1 (stereo not drawn) [Primaquine diphosphate] | 5.8 | > 45.8 | 87.5 | – |
| C=C1/C(=C\C=C2/CCC[C@]3(C)[C@@H]([C@H](C)CCCC(O)(C(F)(F)F)C(F)(F)F)CC[C@@H]23)C[C@@H](O)C[C@@H]1O [Falecalcitriol] | 29.1 | 23.1 | 68.9 | 96.5 |
| C=C[C@@H]1C[C@]1(NC(=O)[C@@H]1C[C@@H]2CN1C(=O)[C@H](C(C)(C)C)NC(=O)O[C@@H]1C[C@H]1CCCCCc1nc3ccc(OC)cc3nc1O2)C(=O)NS(=O)(=O)C1CC1 [MK-5172] | 29.1 | 18.3 | 91.6 | 81.1 |
| CCc1oc2ccccc2c1C(=O)c1cc(I)c(O)c(I)c1 [Benziodarone] | > 45.8 | 29.1 | – | 44.1 |
